# Data reported in article PMC7615677 (Science translational medicine, 2023).
# “Also recorded” adds a separate entry of the source. Where two headings read alike, the source gives them in different places.
# Legend:
# [1] = system: T. b. rhodesiense (bloodstream form); test: In vitro activity against other kinetoplastid parasites; assay type: cell-based; conditions: Trypanosoma brucei, one range given for T. brucei brucei and T. b. rhodesiense
# [2] = pKa and Log D7.4 determination; assay type: physicochemical
# Method: (§1) The ionization constant (pKa), octanol-pH 7.4 buffer partition coefficient (Log D7.4), solubility in biorelevant buffers (FaSSIF-V2, FeSSIF-V2, FaSSGF and pH 7.4 phosphate buffered saline (PBS)) and Caco-2 permeability were determined according to previously published methods ([10]).
# [3] = Solubility in biorelevant buffers; assay type: physicochemical
# Method: as §1
# [4] = Binding to liver microsomes; assay type: in vitro ADME; conditions: pH 7.4; human liver microsomes 1 mg/mL; read-out: Microsome fraction unbound
# Method: Dialysis was conducted for 6 h and parallel non-dialyzed samples were included to confirm the absence of compound degradation. Binding to hepatocytes (at a cell density of 1 x 10^6 cells/mL) was calculated from the measured microsomal binding (at 1 mg/mL) as described previously ([26]). The fraction unbound (fu) was determined from the ratio of the dialysate to the donor concentration, assuming that the system was at steady state at the end of the dialysis period. For plasma, the data were corrected for the dilution factor to give a binding value for neat plasma according to previously published methods ([27]).
# [5] = In vitro metabolism, cryopreserved hepatocytes; assay type: in vitro ADME, rat
# Method: Cell viability was determined using trypan blue exclusion. The incubation was performed on a plate shaker (Heidolph Titrimax 100, 900 rpm) placed in a humidified incubator (37°C, 7.5% CO2) for 240 min. The reaction was initiated with the addition of compound with samples taken periodically and quenched with the addition of acetonitrile containing internal standards (metolazone and diazepam). Quenched samples were maintained on ice for approximately 20-30 min, centrifuged (for 5 min) and the supernatant analyzed by LC-MS.
# In vitro intrinsic clearance (CLint, μL/min/mg or μL/min/10^6 cells) values were calculated from the apparent first order degradation rate constant divided by the microsome concentration or the hepatocyte cell number (10^6 viable cells/mL). In vitro CLint values were then divided by the fraction unbound in the in vitro test system (to give CLint,u) and scaled to in vivo values (mL/min/kg) using published physiological scaling factors ([28]). Blood clearance in each species was then calculated using the well-stirred model of hepatic extraction (equation 2) where Q is the hepatic blood flow and fu,blood is calculated from fu,plasma/B:P: [2] PredictedCLblood=Q x fu,blood x CLint,u/Q+fu,blood x CLint,u
# Blood clearance values were converted to plasma clearance by multiplying by the B:P.
# [6] = In vitro cytotoxicity assay; assay type: cell-based; conditions: mouse, 3T3 mouse embryo fibroblasts
# [7] = In vitro cytotoxicity assay; assay type: cell-based; conditions: mouse, primary mouse macrophages (PMM)
# [8] = In vitro cytotoxicity assays, all cell lines tested; assay type: cell-based; conditions: mouse, human, African green monkey
# CHO-K1 cells = test: In vitro micronucleus assay; assay type: cell-based; conditions: absence or presence of rat liver S9
# Method: The treatment time was 24 h without metabolic activation (rat liver S9) and 3 h with activation. The positive controls were bleomycin sulfate and cyclophosphamide, respectively.
# AR = test: In vitro pharmacology panel (Eurofins); assay type: binding, human; conditions: 10 µM
# From the text: Listed values represent the percent change relative to the DMSO control activity. When an IC50 had to be determined, eight different concentrations were included. All values are the mean of assay readout duplicates.
# HepG2 cells [9] = test: MitoXpress oxygen consumption assay; assay type: cell-based
# Method: Briefly, HepG2 cells were seeded in 96-well plates in 100 μL of complete media and incubated overnight in an incubator set to maintain approximately (37°C and 5% CO2). […] Oligomycin (5 μM), FCCP (1 μM), or antimycin A or antimycin A/Rotenone (1 μM) were added to additional wells as positive controls. Prewarmed (37°C) 100% mineral oil (100 μL) was immediately added to all wells. The assay plates were transferred to a Perkin Elmer Wallac VICTOR3 System reader for time-resolved fluorescence measurements. Fluorescence (excitation 340 nm/emission 642 nm) was measured every two minutes for approximately 1-2 hrs (or until signal plateau/saturation is reached).
# The dual-read time-resolved (T1 = 30 μs and T2 = 70 μs) fluorescence intensity readings (R1 and R2) from the Perkin Elmer Wallac VICTOR3 system (Perkin Elmer) were converted to lifetime fluorescence values as per guidelines detailed in the Agilent MitoXpress Xtra Oxygen Consumption Assay Manual. Calculation of the slope translates to oxygen consumption rate (OCR). Oxygen consumption rate was multiplied by 60 to determine the slope/hour for each assay well.
# [10] = Seahorse mitochondrial stress test; assay type: cell-based; conditions: human, HepG2 cells; read-out: OCR Basal AC50
# Method: (§2) Seahorse® 96 well plates were seeded with HepG2 cells and incubated overnight (37°C, 5% CO2). The media in all plate wells was then replaced with Seahorse® assay media and the plates were incubated (37°C, CO2 free) for a further 1 hour before placing in the Seahorse® XFe96 analyser (Agilent Technologies Inc, USA). […] OCR and ECAR were measured for 45 minutes before the sequential addition of oligomycin (ATP synthase inhibitor), FCCP (carbonyl cyanide 4-(trifluoromethoxy) phenylhydrazone, protonophore uncoupler) and rotenone plus antimycin A (Electron transport chain Complex I and III inhibitors respectively). Multiple measurements of OCR and ECAR were made following each of these additions.
# (§3) Mean ± standard deviation of the compound ratio data were plotted vs log concentration and curves fitted (as described in [24]) and the minimum effective concentration (MEC) determined using limits based on the DMSO vehicle mean ± 2 standard deviations or, where these limits were deemed too narrow, the DMSO vehicle mean ± minimum limits set for each parameter. The AC50 was calculated using the curve and historical maximum (activation) and minimum (inhibition) responses and is defined as the concentration at which 50% of the maximum or minimum effect is observed, provided a clear concentration response relationship is seen.
# HepG2 cells [11] = test: Seahorse mitochondrial stress test; assay type: cell-based
# Method: as §2, §3
# NaV1.5 = NaV1.5 (Homo sapiens, UniProt Q14524); test: Qube NaV1.5
# Chain of NaV1.5 (Q14524 whole entry): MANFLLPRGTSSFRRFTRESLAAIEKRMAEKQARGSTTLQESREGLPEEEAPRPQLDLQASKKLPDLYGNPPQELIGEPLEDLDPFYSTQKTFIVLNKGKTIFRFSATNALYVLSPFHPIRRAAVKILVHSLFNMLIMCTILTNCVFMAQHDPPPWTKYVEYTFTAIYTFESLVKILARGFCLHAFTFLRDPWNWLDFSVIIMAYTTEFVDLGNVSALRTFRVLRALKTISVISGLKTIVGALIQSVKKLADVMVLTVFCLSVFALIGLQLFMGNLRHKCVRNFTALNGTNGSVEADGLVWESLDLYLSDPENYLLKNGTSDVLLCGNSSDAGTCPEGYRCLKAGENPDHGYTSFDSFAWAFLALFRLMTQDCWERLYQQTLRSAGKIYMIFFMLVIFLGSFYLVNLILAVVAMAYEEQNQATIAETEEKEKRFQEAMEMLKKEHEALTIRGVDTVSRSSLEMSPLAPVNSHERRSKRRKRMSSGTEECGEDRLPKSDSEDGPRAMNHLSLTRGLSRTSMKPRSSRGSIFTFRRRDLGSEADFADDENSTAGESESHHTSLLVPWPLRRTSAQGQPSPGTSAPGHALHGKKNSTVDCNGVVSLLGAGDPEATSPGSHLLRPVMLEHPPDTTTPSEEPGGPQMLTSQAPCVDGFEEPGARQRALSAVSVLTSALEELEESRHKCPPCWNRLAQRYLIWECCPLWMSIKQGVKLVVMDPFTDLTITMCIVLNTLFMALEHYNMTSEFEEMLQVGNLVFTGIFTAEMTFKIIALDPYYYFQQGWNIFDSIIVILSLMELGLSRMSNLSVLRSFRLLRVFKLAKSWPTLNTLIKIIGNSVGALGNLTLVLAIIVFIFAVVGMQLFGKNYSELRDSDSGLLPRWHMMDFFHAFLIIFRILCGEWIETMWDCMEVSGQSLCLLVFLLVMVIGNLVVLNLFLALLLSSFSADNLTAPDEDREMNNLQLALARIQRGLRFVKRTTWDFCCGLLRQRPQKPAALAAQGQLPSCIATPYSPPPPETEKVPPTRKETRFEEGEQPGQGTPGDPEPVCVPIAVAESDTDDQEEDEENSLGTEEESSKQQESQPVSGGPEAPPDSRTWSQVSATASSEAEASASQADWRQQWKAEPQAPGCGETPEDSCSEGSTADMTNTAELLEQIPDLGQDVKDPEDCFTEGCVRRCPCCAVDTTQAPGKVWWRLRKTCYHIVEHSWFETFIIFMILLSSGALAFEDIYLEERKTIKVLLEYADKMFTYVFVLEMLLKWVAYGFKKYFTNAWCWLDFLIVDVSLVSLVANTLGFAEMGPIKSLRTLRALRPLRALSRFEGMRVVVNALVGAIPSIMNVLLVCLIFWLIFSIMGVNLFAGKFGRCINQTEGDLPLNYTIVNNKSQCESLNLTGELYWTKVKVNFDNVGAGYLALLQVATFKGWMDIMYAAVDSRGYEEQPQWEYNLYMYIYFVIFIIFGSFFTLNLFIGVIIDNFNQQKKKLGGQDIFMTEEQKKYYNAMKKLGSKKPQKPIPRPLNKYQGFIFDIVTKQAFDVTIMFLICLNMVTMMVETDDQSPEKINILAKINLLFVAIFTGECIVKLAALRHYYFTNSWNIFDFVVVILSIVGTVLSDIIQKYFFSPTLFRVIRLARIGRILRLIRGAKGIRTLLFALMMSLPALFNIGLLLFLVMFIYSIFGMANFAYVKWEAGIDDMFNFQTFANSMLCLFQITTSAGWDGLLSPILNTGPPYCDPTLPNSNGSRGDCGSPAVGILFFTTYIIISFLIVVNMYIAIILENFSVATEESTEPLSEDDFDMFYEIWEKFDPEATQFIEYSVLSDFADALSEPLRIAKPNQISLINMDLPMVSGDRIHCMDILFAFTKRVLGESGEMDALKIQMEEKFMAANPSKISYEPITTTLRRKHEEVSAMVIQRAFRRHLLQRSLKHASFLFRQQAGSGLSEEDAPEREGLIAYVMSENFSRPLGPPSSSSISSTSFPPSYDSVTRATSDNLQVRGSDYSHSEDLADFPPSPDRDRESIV
compound,measurement,setting,value
Cc1[nH]c2nc(N)nc(C)c2c1-c1ccc(C#N)c2c1OCO2 [DNDI-6174],EC50,[1],5 to 20 µM
same,pKa (measured),[2],5.58
same,Log D7.4 (measured),[2]; octanol-pH 7.4 buffer,2.57
same,logD,"[2]; octanol/pH 7.4 buffer, pH 7.4, octanol-pH 7.4 buffer, read-out: Log D7.4 (measured)",2.6
same,pKa,[2]; read-out: pKa (measured),5.6
same,solubility,"[3]; FaSSGF, pH 1.6, fassgf or other biorelevant, pH 1.6, read-out: Solubility FaSSGF",1200 µg/mL
same,solubility,"[3]; FaSSIF-V2, pH 6.5, fassif, pH 6.5, read-out: Solubility FaSSIF",11 µg/mL
same,solubility,"[3]; FeSSIF-V2, pH 5.8, fessif, pH 5.8, read-out: Solubility FeSSIF",54 µg/mL
same,Solubility FaSSGF,[3]; pH 1.6,1190 µg/mL
same,solubility,"[3]; phosphate buffered saline (PBS), pH 7.4, aqueous buffer, pH 7.4, read-out: Solubility PBS",6.5 µg/mL
same,"fraction unbound at 6 h, 0.5 µM",[4],0.51
same,Hepatocyte predicted in vivo CLplasma,[5]; Rat,2.7 mL/min/kg
same,hepatocyte CLint at 0.5 µM,"[5]; rat, cryopreserved hepatocytes",5.3 ± 0.19 µL/min/1e6 cells
same,CC50,[6],> 37 µM
same,CC50,[7],> 64 µM
same,CC50,[8],> 37 µM
same,"genotoxicity, in words",CHO-K1 cells,not genotoxic
same,activity (% of DMSO control),AR,99.1%
same,concentrations at which oxygen consumption was reduced,HepG2 cells [9],≥ 66 µM
same,margin of MitoExpress no-effect concentration over free concentration at predicted human therapeutic plasma Cmax,HepG2 cells [9],approximately 57 fold
same,maximum reduction of oxygen consumption,HepG2 cells [9]; 200 μM (highest tested),28%
same,AC50 at 45 min,[10],> 200 µM
same,OCR Basal minimum effect concentration (MEC),HepG2 cells [11],95.6 µM
same,"Reserve Capacity, ECAR, Maximum Capacity, ATP production, in words",HepG2 cells [11],"No significant response observed on reserve; also recorded: no changes in Reserve Capacity, ECAR, Maximum Capacity or ATP production"
same,margin of Seahorse OCR MEC over free concentration at predicted human therapeutic plasma Cmax,HepG2 cells [11],approximately 187 fold
same,"ECAR, in words",HepG2 cells [11]; 200 μM,transient increase
same,OCR Basal maximum reduction,HepG2 cells [11]; 200 μM,14%
same,IC50,NaV1.5,> 50 µM
